Consider 86 molecules from a melting point compilation (Tetko et al.; mined from patent text by program, amines drawn as free bases though some values may be those of a salt).

SMILES strings stand for the structures. Some results are limits rather than exact numbers.

What is called melting point is the temperature, or range, at which the solid turns liquid. `Cc1cc(C2=NN(C(=S)NN)[C@H](C)Cc3cc4c(cc32)OCO4)ccc1[N+](=O)[O-]`: the melting point was 109 to 115 °C.

As for `COC(=O)c1ccc(O)c(C(=O)OC)c1`, the melting point was in the range of 93 to 94 °C.

With `COc1ccc2cccc(C(F)CNC(C)=O)c2c1` (stereo unspecified), the melting point is 128 to 130 °C.

As to `COC(=O)CC/C(C)=C/Cc1c(C#N)c2c(c(C)c1OC)COC2=O`, the melting point fell in the range of 87 to 88 °C.

For the molecule `Cc1nc2c(N)nc3ccccc3c2n1OC(C)(C)C`, the melting point lay in the range of 255 to 257 °C.

With `CC(C)(C)C(=O)COc1nn(CC=C(Cl)Cl)c(-c2ccc(S(C)(=O)=O)cc2)c1-c1ccc(F)cc1`, the melting point was in the range of 156 to 158 °C.

In turn, `CCOc1nn(C(=O)NS(=O)(=O)Cl)c(=O)n1C` returned a melting point of 106 °C.

With `C[C@@H](NC(=O)c1csc(-c2ccc(C(F)(F)F)cc2)n1)[C@](O)(Cn1cncn1)c1ccc(F)cc1F`, the melting point is 167 to 168 °C.

Consider `CC(C)c1nc(CN(C(=O)N[C@H](C(=O)N[C@@H](Cc2ccccc2)C[C@H](O)[C@H](Cc2ccccc2)NC(=O)OCc2cncs2)C(C)C)C2CC2)cs1`, for which the melting point lay in the range of 65 to 66 °C.

Molecule `CCCCCc1oc(-c2ccc(Cl)cc2)nc1CC(=O)OCC` gave a melting point of 52 to 53 °C.

Molecule `O=C(O)C(Cc1ccccc1)Oc1c(Br)cc(-c2ccc(-c3c(Cc4ccccc4)sc4ccccc34)cc2)cc1Br` (stereo unspecified) registered a melting point of 87 to 89 °C.

In turn, `NS(=O)(=O)C1(C2C(Cl)=CC=CN2C(F)(F)F)C=CC(Cl)=CC1Cl` (stereo unspecified) came in with a melting point of 125 to 126 °C.

Turning to `COc1cc(OC)nc(OC(C(=O)O)C(C)(C)C#N)n1` (stereo unspecified), the melting point is 142 to 150 °C.

Consider `COc1ccc(COC(=O)C2=C3[C@H]4CCCC[C@H]4[C@@H]3S[C@@H]3[C@H](NC(=O)Cc4ccccc4)C(=O)N23)cc1`, for which the melting point fell in the range of 234 to 236 °C.

Molecule `CC(C)(C)CN1C(=O)[C@@H](CC(=O)NCc2nnn[nH]2)O[C@H](c2ccccc2Cl)c2cc(Cl)ccc21` (relative stereo) gave a melting point of 251 to 252 °C.

Molecule `CC(=O)NNc1nc(C(F)(F)F)nc(-c2ccccc2)c1-c1ccccc1` gave a melting point of 113 to 116 °C.

`CCn1c(N)c(C(N)=O)c(=O)c2cnc(Nc3ccc(NCC(=O)C4CC4)cc3)nc21` came in with a melting point of 248 °C.

The molecule `O=c1cc(Cl)cnn1CC1CCCCC1` gave a melting point of 81.6 to 81.8 °C.

Molecule `O=C(O)c1cnn(CCCCN2CCN(C(c3ccccc3)c3ccccc3)CC2)c1` came in with a melting point of 70 to 74 °C.

For the molecule `CC(=O)SCC(Cc1noc2ccccc12)C(=O)Nc1cccc(C(=O)O)c1` (stereo unspecified), the melting point fell in the range of 185 to 187 °C.

`O=Cc1cc(C2CC2)nn1Cc1ccc(C(F)(F)F)cc1Cl` returned a melting point of 94 to 96 °C.

`Oc1ccc2c(c1)CC(n1cc[nH]c1=S)CC2` (stereo unspecified) showed a melting point of 248 to 250 °C.

The molecule `CN1CCC(OC(c2ccccc2)c2nc3ccccc3[nH]2)C1` (stereo unspecified) displayed a melting point of 53 °C.

Molecule `CN[C@@H]1CCN(c2ccc3c(NC(=O)CC4CCCCC4)c(Cl)ccc3n2)C1` gave a melting point of 169 °C.

The molecule `O=C(CCn1ccnc1)Cc1c(Cl)cccc1Cl` displayed a melting point of 98.5 to 102 °C.

Turning to `CC(=O)Oc1coc(-c2cccc([N+](=O)[O-])c2)cc1=O`, the melting point fell in the range of 170 to 171 °C.

Turning to `Cc1sc2cc(C(=O)NCC3(SCc4ccccc4)CCNCC3)[nH]c2c1N(C)S(=O)(=O)c1cccs1`, the melting point was found to be 222 °C.

Molecule `COC(=O)CCCCC(NC(=O)c1ccccc1)C(C)=O` (stereo unspecified) came in with a melting point of 59 to 60 °C.

On to `Cc1nc2c(OCc3ccccc3)cccn2c1CC#N`, for which the melting point was 163 to 166 °C.

Molecule `O=C(O)Cc1ccc2oc3ncccc3c(=O)c2c1` gave a melting point of 244 to 245 °C.

In turn, `CCCCCCCCCCCCCCCCCCNC(=O)CC[Si](OCC)(OCC)OCC` gave a melting point of 50 to 52 °C.

For the molecule `CC(=O)N1CCSc2ccccc2C1`, the melting point was 69 to 70 °C.

Molecule `Nc1nc2ccccc2c2c1ncn2CCNC(=O)c1ccccc1` showed a melting point of 295 °C.

The molecule `Cc1[nH]c(C(=O)N2CCC(C(=O)O)CC2)c(C)c1-c1nc2ccc(C(=O)c3ccccc3)cc2[nH]1` came in with a melting point of 267 to 271 °C.

The molecule `O=C(OCc1ccccc1)c1ccc(OC(=O)c2ccccc2C(=O)Oc2ccc(C(=O)OCc3ccccc3)cc2)cc1` displayed a melting point of 100 to 103 °C.

With `CONC(=O)c1ccc(CC(C)(C)C=O)cc1`, the melting point fell in the range of 126 to 128 °C.

As to `O=C1CCCN1N=c1sc2ccccc2s1`, the melting point was 122 to 124 °C.

Molecule `COc1ccc(CSc2nnc(-c3ccc4ncsc4c3)o2)cc1C#N` registered a melting point of 181 to 182 °C.

On to `COc1ccc(SSC)cc1`, for which the melting point lay within 98 to 100 °C.

`CC(=O)N(C#N)c1ccc(Cc2ccc(N(C#N)C(C)=O)cc2)cc1`: the melting point lay within 134 to 136 °C.

In turn, `CN(CCc1ccc([N+](=O)[O-])cc1)Cc1cc2cc([N+](=O)[O-])ccc2s1` showed a melting point of 76 to 78 °C.

Molecule `CC(=O)NCCCSc1c(Cc2cccc3ccccc23)sc2c1c(=O)n(C)c(=O)n2CC(C)C` gave a melting point of 114 to 117 °C.

`CCCC1=C(C(=O)OCC)C(c2ccccc2C)c2c[nH]nc2N1` (stereo unspecified) returned a melting point of 178 °C.

`CCc1cccc2c(C(C)=CC(=O)O)cc(OC)c(O)c12` returned a melting point of 114 to 115 °C.

Regarding `C=CCn1cc(Cn2ccnc2)c2cc(O)ccc21`, the melting point was 165 to 167 °C.

In turn, `c1ccc(N2c3ccccc3[C@@H]3CN(CC4CCC4)CC[C@H]32)cc1` came in with a melting point of 76.5 to 77 °C.

`CCCCC(CC)COc1ccc2c(Br)c3cc(OCC(CC)CCCC)ccc3c(Br)c2c1` (stereo unspecified) yielded a melting point of 103 to 105 °C.

Regarding `CC1Cc2cc3c(cc2C1)CC(C(=N)NO)C3`, the melting point was in the range of 194 to 195 °C.

Molecule `CC(=O)Nc1nc(-c2ccc(S(=O)(=O)COC(C)=O)cc2)cs1` registered a melting point of 237 to 238 °C.

As for `Cc1cc2c(cc1O)C(C)(C)CC1(CC(C)(C)c3cc(OC(C)(C)CO)c(C)cc3O1)O2` (stereo unspecified), the melting point was in the range of 188 to 189 °C.

In turn, `CC1(C)CC2(CC(C)(C)c3ccc(Oc4ccc(N)cc4)cc32)c2cc(Oc3ccc(N)cc3)ccc21` yielded a melting point of 214 to 215 °C.

For `CC(Cc1ccc(C(C)(C)C)cc1)C[N+]1([O-])CC(C)OC(C)C1` (stereo unspecified), the melting point is 115 to 118 °C.

Consider `CCOCCOc1ccc(-c2ccc3c(c2)C=C(C(=O)OC)CCN3C=O)cc1`, for which the melting point was in the range of 138 to 142 °C.

Regarding `Cc1cccc(NC(=O)NC2N=C(c3ccccc3F)c3ccccc3N(Cc3cc(C(C)(C)C)ccn3)C2=O)c1` (racemic), the melting point lay in the range of 142 to 144 °C.

Take `COCOc1ccc2sc(C=O)cc2c1`: the melting point was 81 to 82 °C.

With `CC(=O)Nc1cccc2c(OC(C)=O)c(S(=O)(=O)NC(C)(C)C)ccc12`, the melting point fell in the range of 203 to 206 °C.

`CCCCCc1cc2c(nc(O)n2CCCNC(C)=O)c(N)n1` displayed a melting point of 189 to 191 °C.

On to `CC(C)(C)c1ccc2c(c1)C(=O)NC2`, for which the melting point was in the range of 142 to 144 °C.

`COC(=O)C(=O)c1ccc(OCC(=O)c2ccc3ccccc3c2)cc1` yielded a melting point of 120 to 121 °C.

`CNc1cc(CC(C#N)=CNc2ccccc2)cc(NC)c1Cl` had a melting point of 142 to 147 °C.

Molecule `CC(C)NC(=O)OCC(=O)c1ccccc1F` came in with a melting point of 70 to 74 °C.

For the molecule `COC(=O)C1(NC(=O)Cc2cc(-c3ccc(Cl)cc3)ccc2Cl)CCC(F)(F)CC1`, the melting point lay within 146 to 147 °C.

`O=C(NCCSCc1cccc([N+](=O)[O-])c1)c1c(Cl)cccc1Cl` displayed a melting point of 76 to 78 °C.

For the molecule `COC(=O)CCNCC1CC2c3cc(C(C)(C)C)cc4[nH]cc(c34)CC2N(C)C1` (stereo unspecified), the melting point was in the range of 153 to 157 °C.

Consider `Cc1ccc(S(=O)(=O)N2CCc3c(sc(N)c3C(=O)c3ccccc3)C2)cc1`, for which the melting point fell in the range of 165 to 167 °C.

The molecule `Cc1sc2c(Br)c3ccccc3c(C3=CC(Br)([N+](=O)[O-])C(OC(Cc4ccccc4)C(=O)O)C=C3)c2c1C` (stereo unspecified) registered a melting point of 243 to 245 °C.

`Cn1c(=O)[nH]c2ccsc2c1=O` gave a melting point of 260 to 262 °C.

With `C=C(C)c1cc(Br)c(Oc2nc(C)nc(N3CCOCC3)n2)c(OC)c1`, the melting point fell in the range of 63 to 67 °C.

Turning to `O=S(=O)(CCl)c1ccc(-n2cnnn2)cc1`, the melting point lay in the range of 168 to 172 °C.

The molecule `CC(C)c1[nH]c(=O)[nH]c1-c1cc(C(C)(C)C)c(O)c(C(C)(C)C)c1` yielded a melting point of more than 290 °C.

With `Cc1oc(-c2cc3ccccc3s2)nc1COc1ccc(CCCC2OC(=O)NC2=O)cc1` (stereo unspecified), the melting point lay within 154 to 155 °C.

With `CCOC(=O)c1c(Cl)c2cc(C)ccc2n(Cc2ccccc2)c1=O`, the melting point worked out at 103 °C.

Consider `C[C@@](O)(C(=O)Nc1ccc(S(=O)(=O)c2ccccc2F)cc1Cl)C(F)(F)F`, for which the melting point was in the range of 90 to 92 °C.

With `CCCCc1sc(C(N)=O)c2c1-c1c(cnn1C)CC2`, the melting point was in the range of 119 to 121 °C.

In turn, `CC1(C)CC2(CC(C)(C)C1Cc1ccccc1)C(=O)C(Cc1ccccc1)C(=O)C2Cc1ccccc1` (stereo unspecified) yielded a melting point of 135 to 136 °C.

Turning to `CCc1ccc(-c2sc(NC(=O)c3ccc(S(=O)(=O)N4CCCC4C(=O)O)cc3)nc2-c2ccc(Cl)cc2)cc1` (stereo unspecified), the melting point was in the range of 289 to 292 °C.

In turn, `COC(=O)C(C)Oc1noc2cc(Cl)c([N+](=O)[O-])cc12` (stereo unspecified) had a melting point of 98 to 101 °C.

The molecule `COc1c(C)c(N2CCN(c3ccc(OC(F)F)cc3)CC2)c(C)c2c1OC(C)(C)C2` yielded a melting point of 151 to 152 °C.

`O=C(N[C@H](Cc1ccc(C(F)(F)F)cc1)[C@@H](O)c1cccc2ccccc12)c1ccc2ccccc2c1` (racemic) yielded a melting point of 251 to 252 °C.

`COc1cccc2c1OC(C(=O)O)CO2` (stereo unspecified): the melting point lay in the range of 131 to 132 °C.

In turn, `CC(=O)SCC(C(=O)Nc1cccc(O)c1)C(F)(F)F` (stereo unspecified) showed a melting point of 148 to 149 °C.

Regarding `Cc1cccc(Nc2nc(-c3cc(-c4ccccc4)no3)cs2)n1`, the melting point fell in the range of 291 to 293 °C.

Consider `CCOC(=O)c1c(C)nc2c(c1N)c1ccccc1n2Cc1ccc(OC)cc1`, for which the melting point was 138 to 140 °C.

As to `CCCCC(CC)Cn1c(C)cc(C)c(C(=O)O)c1=O` (stereo unspecified), the melting point was in the range of 89 to 91 °C.

Turning to `CC(C)(C1CCCCC1)C(NC(=O)c1ccc(Cl)cc1)NC(=NC#N)Nc1cccnc1` (stereo unspecified), the melting point lay in the range of 181 to 183 °C.

In turn, `CCCCCCc1cc2c(cc1O)C(=O)CCC2` came in with a melting point of 125 °C.
